Here are results for seven molecules from PubChem BioAssay (NCI).

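1) Cells in 96-well plates. 2) Compound, 48 h, 5 concentrations. 3) Linear interpolation between surrounding doses. 4) Unreached endpoint = highest concentration. GI50 is the concentration that inhibits growth by half. TGI: total growth inhibition.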

Among the test systems are DU-145 prostate; HCT-15 colon; HL-60(TB) leukemia; LOX IMVI melanoma; OVCAR-5 ovarian; RPMI-8226 leukemia; SK-MEL-28 melanoma; SK-MEL-5 melanoma; SR leukemia; UO-31 renal.
Common to all, as to assay: growth of human tumour cells (NCI), 48 h

Take `N#Cc1c(-c2ccccc2)nc2c(c(-c3ccccc3)nn2-c2ccccc2)c1-c1ccc(O)cc1`: the GI50 in the assay on DU-145 prostate was 2.62 µM; in the assay on HCT-15 colon, 1.62 µM; with HL-60(TB) leukemia, 3.52 µM; in the assay on LOX IMVI melanoma, 1.68 µM; with OVCAR-5 ovarian it was 1.75 µM; in the assay with RPMI-8226 leukemia, 2.42 µM. The GI50 with SK-MEL-28 melanoma was 1.58 µM; with SK-MEL-5 melanoma, 1.76 µM; in the assay with SR leukemia it was 2.95 µM; with UO-31 renal, 2.02 µM. Besides, the TGI was found to be 8.53 µM in the assay on DU-145 prostate; 3.79 µM with HCT-15 colon; 23.7 µM in the assay on HL-60(TB) leukemia; 3.05 µM in the assay with LOX IMVI melanoma; 3.41 µM with OVCAR-5 ovarian; 17.9 µM with RPMI-8226 leukemia. The TGI in the assay with SK-MEL-28 melanoma is 3.05 µM; in the assay on SK-MEL-5 melanoma, 3.19 µM; with SR leukemia, greater than 100 µM; in the assay with UO-31 renal it was 4.16 µM.

`CNC(=O)c1ccc(-c2cnc3ncc(Cc4ccc5ncccc5c4)n3n2)cc1F`: the GI50 with DU-145 prostate, with HCT-15 colon, with HL-60(TB) leukemia, in the assay on LOX IMVI melanoma, in the assay with OVCAR-5 ovarian and in the assay with RPMI-8226 leukemia was greater than 100 µM throughout. Also, the GI50 in the assay on SK-MEL-28 melanoma, with SK-MEL-5 melanoma, with SR leukemia and in the assay with UO-31 renal was greater than 100 µM each time. Also, the TGI in the assay on DU-145 prostate, with HCT-15 colon, in the assay with HL-60(TB) leukemia, with LOX IMVI melanoma, in the assay with OVCAR-5 ovarian and with RPMI-8226 leukemia was greater than 100 µM throughout. Also, the TGI in the assay on SK-MEL-28 melanoma, in the assay with SK-MEL-5 melanoma, in the assay on SR leukemia and in the assay on UO-31 renal was greater than 100 µM each time.

On to `CCCNCc1cc(C)cc2c1nc(N1CCNCC1)n2Cc1cc(C)c(F)c(C)c1`, for which the GI50 is 6.15 µM in the assay on DU-145 prostate; 4.46 µM in the assay with HCT-15 colon; 1.76 µM with HL-60(TB) leukemia; 1.72 µM in the assay on LOX IMVI melanoma; 7.58 µM in the assay on OVCAR-5 ovarian; 2.09 µM in the assay on RPMI-8226 leukemia. The GI50 with SK-MEL-28 melanoma was 1.84 µM; with SK-MEL-5 melanoma it was 1.75 µM; in the assay with SR leukemia, 1.22 µM; in the assay with UO-31 renal it was 13.2 µM. The TGI was 19.6 µM with DU-145 prostate; 16.4 µM in the assay on HCT-15 colon; 3.8 µM in the assay with HL-60(TB) leukemia; 3.22 µM in the assay on LOX IMVI melanoma; 22.3 µM in the assay on OVCAR-5 ovarian; 5.29 µM in the assay with RPMI-8226 leukemia. For the same molecule, the TGI was 3.54 µM in the assay with SK-MEL-28 melanoma, 3.21 µM in the assay on SK-MEL-5 melanoma, 3.39 µM in the assay with SR leukemia and 27.3 µM in the assay with UO-31 renal.

In the case of `CCCCCCNc1nc(NCCCCCC)c2[nH]c(NCCCCCC)nc2n1`, the GI50 in the assay on DU-145 prostate is 12.8 µM; in the assay on HCT-15 colon it was 10.7 µM; with HL-60(TB) leukemia, 1.58 µM; with LOX IMVI melanoma, 2.66 µM; in the assay with OVCAR-5 ovarian, 9.31 µM; in the assay on RPMI-8226 leukemia, 1.86 µM. The GI50 with SK-MEL-28 melanoma was 12.1 µM; in the assay on SK-MEL-5 melanoma, 12.7 µM; in the assay on SR leukemia it was 0.582 µM; in the assay on UO-31 renal, 14 µM. In addition, the TGI with DU-145 prostate is 25.4 µM; in the assay on HCT-15 colon, greater than 51.7 µM; in the assay with HL-60(TB) leukemia it was 4.22 µM; in the assay with LOX IMVI melanoma, 7.53 µM; with OVCAR-5 ovarian, 24.7 µM; in the assay with RPMI-8226 leukemia, 10.3 µM. Also, the TGI in the assay on SK-MEL-28 melanoma came out at 24.6 µM; with SK-MEL-5 melanoma it was 25.2 µM; in the assay on SR leukemia it was 3.43 µM; in the assay on UO-31 renal, 35 µM.

As to `CN(C)CCNC(=O)Nc1c(C#N)[n+]([O-])c2cc(Cl)c(Cl)cc2[n+]1[O-]`, the GI50 in the assay on DU-145 prostate was 25.4 µM; in the assay on HCT-15 colon, 41.4 µM; with HL-60(TB) leukemia, 27.2 µM; in the assay on LOX IMVI melanoma, 18.3 µM; in the assay with OVCAR-5 ovarian, 87.1 µM; in the assay with RPMI-8226 leukemia it was 8.65 µM. The GI50 in the assay on SK-MEL-28 melanoma was 34.3 µM; with SK-MEL-5 melanoma, 14.3 µM; with SR leukemia it was 13.4 µM; in the assay with UO-31 renal, 45 µM. Also, the TGI in the assay with DU-145 prostate, with HCT-15 colon, in the assay with HL-60(TB) leukemia, in the assay on LOX IMVI melanoma, in the assay on OVCAR-5 ovarian and in the assay on RPMI-8226 leukemia was greater than 100 µM in each case. Also, the TGI is greater than 100 µM with SK-MEL-28 melanoma, 38.1 µM with SK-MEL-5 melanoma, greater than 100 µM with SR leukemia and greater than 100 µM with UO-31 renal.

For the molecule `CCN(Cc1c(F)cccc1F)c1ccc(CO)c(Cl)c1`, the GI50 in the assay with DU-145 prostate is 12.3 µM; with HCT-15 colon it was 9.04 µM; in the assay with HL-60(TB) leukemia, 3.1 µM; with LOX IMVI melanoma it was 17.4 µM; with OVCAR-5 ovarian it was 0.0353 µM; in the assay on RPMI-8226 leukemia it was 1.1 µM. Also, the GI50 in the assay on SK-MEL-28 melanoma was 19.1 µM; in the assay on SK-MEL-5 melanoma, 13.5 µM; in the assay with SR leukemia, 16.5 µM; in the assay with UO-31 renal, 2.3 µM. In addition, the TGI in the assay with DU-145 prostate stood at 47 µM; in the assay on HCT-15 colon, 48.8 µM; in the assay with HL-60(TB) leukemia it was 39.4 µM; in the assay on LOX IMVI melanoma it was 32.4 µM; with OVCAR-5 ovarian it was 0.147 µM; in the assay on RPMI-8226 leukemia, 41.4 µM. Further, the TGI in the assay on SK-MEL-28 melanoma was 52.6 µM; in the assay with SK-MEL-5 melanoma it was 26.7 µM; in the assay with SR leukemia, 49.2 µM; in the assay with UO-31 renal it was 51.4 µM.

Regarding `CCCCCC(=O)Oc1ccc(/C(=C(\C)c2ccc(OC)cc2)c2ccc(OCCN3CCCCC3)cc2)cc1`, the GI50 in the assay on DU-145 prostate was 13.5 µM; in the assay on HCT-15 colon, 2.92 µM; in the assay on HL-60(TB) leukemia, 3.98 µM; in the assay with LOX IMVI melanoma, 2.19 µM; with OVCAR-5 ovarian it was 12.7 µM; with RPMI-8226 leukemia it was 3.24 µM. Moreover, the GI50 was 3.6 µM in the assay with SK-MEL-28 melanoma, 1.8 µM in the assay with SK-MEL-5 melanoma, 2.71 µM in the assay with SR leukemia and 3 µM in the assay with UO-31 renal. Also, the TGI with DU-145 prostate is 26.6 µM; with HCT-15 colon it was 10.2 µM; in the assay with HL-60(TB) leukemia it was 17.8 µM; with LOX IMVI melanoma it was 5.22 µM; in the assay on OVCAR-5 ovarian it was 27 µM; in the assay on SK-MEL-28 melanoma, 12.8 µM. Further, the results for the TGI in the assay with SK-MEL-5 melanoma, in the assay on SR leukemia and in the assay with UO-31 renal were 3.57 µM, 22.2 µM and 14.4 µM, respectively.
